Data taken from US20080194491A1, “Methods of Diagnosing, Preventing, and Treating Early Onset of Pulmonary Hypertension” (priority 2002, published 2008).

Legend:
[1] = system: motoneurons; conditions: in vitro and in vivo; cited from earlier work
[2] = system: T-lymphocyte cell line; conditions: cited from earlier work
[3] = system: mammary epithelial cells; conditions: absence of extracellular matrix; cited from earlier work
[4] = system: lung apoptosis after MCT; assay: Early caspase inhibition after MCT: lung apoptosis by TUNEL assay; type: in vivo, Rats
Procedure: The methods set out in Example 3 were employed. In this set of experiments, the inventors tried to establish the effect of apoptosis inhibitors on the early development of the apoptotic pathways. They blocked the caspase activity at a much earlier time point (18 hours post MCT injection and another injection 24 hours after that) using two classes of caspase inhibitors, namely Z-Asp (2.5 mg/Kg) and Z-VAD (1.5 mg/Kg; see FIG. 10 for details). Rats were sacrificed 24, 48 and 72 hours post last dose of inhibitors/DMSO injection and lungs were collected for histology and activity assay. Apoptosis were measured by both TUNEL and caspase activity assays, as previously described.

[5] = system: Human pulmonary artery epithelial cells (HPAEC); assay: HPAEC apoptosis induced by serum withdrawal (flow cytometry Annexin V, TUNEL); type: cell-based; conditions: pretreatment 100-200 ng/ml for 2 hours; flow cytometry and TUNEL assay
Procedure: (§1) The inventors investigated the effect of BMPR2 signaling on pulmonary endothelial cell proliferation and survival. Human pulmonary artery […] cells (HPAEC) were grown in EBM-2 medium supplemented with 2% FBS and growth factors (Clonetics). Apoptosis was induced either by serum withdrawal (see FIG. 17) or exposure of cells to TNFα. […] Apoptosis was evaluated by three independent methods: 1) flow cytometry using Annexin V, a Ca2+ dependent phospholipid-binding protein with affinity for phosphatidylserine (PS; translocation of PS from the inner leaflet of plasma membrane to the outer layer occurs during the early stage of apoptosis), 2) TUNEL assay and, 3) caspase activity assay.

[6] = system: Human pulmonary artery cells (HPAEC); assay: HPAEC apoptosis induced by TNF (caspase activity assay); type: cell-based; conditions: pretreatment 100-200 ng/ml for 2 hours, TNF 10-20 ng/ml
Procedure: as §1

Which death of motoneurons [1] does the source give for acetyl-YVAD-chloromethylketone here?
Its death of motoneurons is “blocked”.

Which anti-Fas induced apoptosis [2] does the source give for acetyl-DEVD-aldehyde here?
Its anti-Fas induced apoptosis is “inhibited”.

Which death of motoneurons [1] does the source give for acetyl-YVAD-aldehyde here?
The death of motoneurons was “blocked”.

Which “cell death of mammary epithelial cells” value [3] does the source give for `CC(C)(C)OC(=O)N[C@@H](CC(=O)OCc1ccccc1)C(=O)CCl` [Boc-D-(benzyl) chloromethylketone] here?
The value was “prevented”.

For Z-VAD, which inhibition of apoptosis ([4]; 48 or 72 hours after the last treatment) is on record?
The inhibition of apoptosis was “less potent”.

What about the inhibition of apoptosis ([4]; 24 hours after the last treatment) of the same molecule?
The inhibition of apoptosis was “most effective”.

B1: BMP7: bone morphogenetic protein (protein, UniProt P18075 293-431, looked up)
Bone morphogenetic protein 7: STGSKQRSQNRSKTPKNQEALRMANVAENSSSDQRQACKKHELYVSFRDLGWQDWIIAPEGYAAYYCEGECAFPLNSYMNATNHAIVQTLVHFINPETVPKPCCAPTQLNAISVLYFDDSSNVILKKYRNMVVRACGCH
With B1 as the molecule, how does the “apoptosis induced by serum withdrawal” value [5] read?
The value was “protected the cells from apoptosis”.

What about the “apoptosis induced by TNF treatment” value [6] of the same molecule?
The value was “protect the cells from apoptosis”.
